Key:
[1] = molecular target: T1, PARP (Homo sapiens, UniProt P09874); experiment: Enzymatic Assay 1: HT F Homogeneous PARP Inhibition Assay of cleaved compounds; type: biochemical; set-up: purchased Trevigen #4690-096-K (Assay 1); #4676-096-K (Assay 2)
[2] = molecular target: T1, PARP; experiment: Enzymatic Assay 2: HT Universal Chemiluminescent PARP Assay of cleaved compounds;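 note: PARP reaction with activated DNA run 1 h at room temperature, product detected via streptavidin-HRP and luminescence endpoint reading on a plate reader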
Method: An equal volume of 1×PARP cocktail containing activated DNA was added to each well and the reaction was incubated for one hour at room temperature. The wells were washed twice with 1×PBS+0.1% Triton X-100 and twice with PBS. 50 ul/well of diluted streptavidin-HRP was added and the wells were incubated for one hour at room temperature. The wells were washed twice with 1×PBS+0.1% Triton X-100 and washed twice with PBS. The liquid was 5 removed, 100 ul/well 1:1 PeroxyGlow A/PeroxyGlow B was added and the chemiluminescent readings were measured on a BioTek Cytation 5 plate reader using the luminescence fiber endpoint.

[3] = tested on: DLD-1 BRCA2−/− cells; experiment: Growth delay assay; type: cell-based, Human; details: pH 7.4, BRCA (−/−) DLD-1, 96 h
Method: Cells were plated in 96 well black walled-clear bottom plates (Griener), DLD-1 WT cells at 2500 cells per well, DLD-1 BRCA2−/− at 5000 cells per well, in growth media containing 10% FBS. Cells were allowed to adhere at room temperature for 60 minutes before returning to a 37 C, 5% CO2 incubator. After 24 hours, media was removed and replaced with fresh growth media containing various drug concentrations. Each drug concentration was added in triplicate. Non-drug treated controls contained growth media only. Cells were returned to the incubator. Ninety-six hours after addition of drug, cells were fixed with 4% paraformaldehyde for 20 minutes and stained with Hoechst at 1 ug/mL. The plates were imaged on a Cytation 5 auto imager (BioTek) and cells were counted using CellProfiler (http://cellprofiler.org). The percent cell growth delay was calculated and data plotted using GraphPad Prism.

[4] = read-out: IC50 Enzymatic Assay 2, Examples cleaved per Example A (crude cleavage solution), R^8H starting materials as such

T1 sequence (P09874 whole entry): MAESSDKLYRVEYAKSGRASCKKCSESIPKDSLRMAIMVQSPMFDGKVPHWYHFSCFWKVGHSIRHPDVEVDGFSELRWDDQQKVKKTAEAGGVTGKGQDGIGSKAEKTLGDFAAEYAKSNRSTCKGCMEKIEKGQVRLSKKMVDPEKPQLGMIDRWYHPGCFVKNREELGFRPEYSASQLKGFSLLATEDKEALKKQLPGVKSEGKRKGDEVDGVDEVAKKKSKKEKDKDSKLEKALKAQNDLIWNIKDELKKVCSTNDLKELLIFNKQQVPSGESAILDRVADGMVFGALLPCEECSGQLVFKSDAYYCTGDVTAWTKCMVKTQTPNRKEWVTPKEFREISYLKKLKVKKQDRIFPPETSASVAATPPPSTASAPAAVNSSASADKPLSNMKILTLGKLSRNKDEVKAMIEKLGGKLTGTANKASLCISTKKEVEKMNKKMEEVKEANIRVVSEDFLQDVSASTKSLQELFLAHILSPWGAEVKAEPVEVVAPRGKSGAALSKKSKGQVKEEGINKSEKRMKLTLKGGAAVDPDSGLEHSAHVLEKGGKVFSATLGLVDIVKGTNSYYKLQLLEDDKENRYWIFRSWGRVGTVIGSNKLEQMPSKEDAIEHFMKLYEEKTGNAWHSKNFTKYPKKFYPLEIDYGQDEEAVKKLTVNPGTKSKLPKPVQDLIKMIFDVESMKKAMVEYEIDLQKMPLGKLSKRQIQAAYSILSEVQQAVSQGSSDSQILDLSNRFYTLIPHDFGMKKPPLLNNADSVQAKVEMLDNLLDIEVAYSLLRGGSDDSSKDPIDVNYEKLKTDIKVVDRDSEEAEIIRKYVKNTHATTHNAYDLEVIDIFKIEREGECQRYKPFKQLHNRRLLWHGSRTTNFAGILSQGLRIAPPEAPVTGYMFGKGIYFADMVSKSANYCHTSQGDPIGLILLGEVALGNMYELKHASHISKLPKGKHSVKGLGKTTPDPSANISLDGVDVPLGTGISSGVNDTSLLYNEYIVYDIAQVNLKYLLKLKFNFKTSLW

IC50 ([1]; Examples cleaved per Example A (crude cleavage solution); R^8H starting materials as such; 1 uM NAD; read-out: IC50 Enzymatic Assay 1)	IC50 [2]	Compound	IC50 ([1]; read-out: IC50 Enzymatic Assay 1; Examples cleaved per Example A (crude cleavage solution); R^8H starting materials as such; 1 uM NAD)	IC50 [2, 4]	IC50 [3]
		CC(C)C[C@H](NC(=O)[C@H](Cc1ccc(O)cc1)NC(=O)[C@H](C)NC(=O)[C@H](CCCNC(=N)N)NC(=O)[C@H](Cc1c[nH]c2ccccc12)NC(=O)[C@@H]1CCCN1C(=O)[C@H](CC(N)=O)NC(=O)[C@H](CCC(N)=O)NC(=O)[C@H](CC(=O)O)NC(=O)[C@H](CC(=O)O)NC(=O)[C@H](C)N)C(=O)N[C@@H](CC(=O)O)C(=O)N[C@@H](CC(C)C)C(=O)N[C@@H](CC(C)C)C(=O)N[C@@H](Cc1ccccc1)C(=O)N1CCC[C@H]1C(=O)N[C@H](C(=O)N[C@@H](CC(=O)O)C(=O)N[C@H](C(=O)N[C@@H](CC(C)C)C(=O)N[C@@H](CC(C)C)C(=O)N[C@@H](CC(C)C)C(=O)N[C@@H](CC(=O)O)C(=O)N[C@@H](CC(C)C)C(=O)N[C@@H](CC(C)C)C(=O)N[C@@H](Cc1c[nH]c2ccccc12)C(=O)N[C@@H](CC(=O)O)C(=O)N[C@@H](C)C(=O)N[C@@H](CC(=O)O)C(=O)N[C@@H](CCC(=O)O)C(=O)N[C@@H](CSS[C@H](C)COC(=O)OCc1ccc(-c2nc3c(C(N)=O)cccc3[nH]2)cc1)C(=O)NCC(=O)O)[C@@H](C)O)[C@@H](C)O [Example 7]	111 nM	6.45 nM	
		CC(C)C[C@H](NC(=O)[C@H](Cc1ccc(O)cc1)NC(=O)[C@H](C)NC(=O)[C@H](CCCNC(=N)N)NC(=O)[C@H](Cc1c[nH]c2ccccc12)NC(=O)[C@@H]1CCCN1C(=O)[C@H](CC(N)=O)NC(=O)[C@H](CCC(N)=O)NC(=O)[C@H](CC(=O)O)NC(=O)[C@H](CC(=O)O)NC(=O)[C@H](C)N)C(=O)N[C@@H](CC(=O)O)C(=O)N[C@@H](CC(C)C)C(=O)N[C@@H](CC(C)C)C(=O)N[C@@H](Cc1ccccc1)C(=O)N1CCC[C@H]1C(=O)N[C@H](C(=O)N[C@@H](CC(=O)O)C(=O)N[C@H](C(=O)N[C@@H](CC(C)C)C(=O)N[C@@H](CC(C)C)C(=O)N[C@@H](CC(C)C)C(=O)N[C@@H](CC(=O)O)C(=O)N[C@@H](CC(C)C)C(=O)N[C@@H](CC(C)C)C(=O)N[C@@H](Cc1c[nH]c2ccccc12)C(=O)N[C@@H](CSS[C@H](C)COC(=O)NCN1c2cc(F)cc3c(=O)[nH]nc(c23)[C@H](c2ncnn2C)[C@H]1c1ccc(F)cc1)C(=O)NCC(=O)O)[C@@H](C)O)[C@@H](C)O [Example 40]		1.1 nM	64 nM
		CC(C)C[C@H](NC(=O)[C@H](Cc1ccc(O)cc1)NC(=O)[C@H](C)NC(=O)[C@H](CCCNC(=N)N)NC(=O)[C@H](Cc1c[nH]c2ccccc12)NC(=O)[C@@H]1CCCN1C(=O)[C@H](CC(N)=O)NC(=O)[C@H](CCC(N)=O)NC(=O)[C@H](CC(=O)O)NC(=O)[C@H](CC(=O)O)NC(=O)[C@H](C)N)C(=O)N[C@@H](CC(=O)O)C(=O)N[C@@H](CC(C)C)C(=O)N[C@@H](CC(C)C)C(=O)N[C@@H](Cc1ccccc1)C(=O)N1CCC[C@H]1C(=O)N[C@H](C(=O)N[C@@H](CC(=O)O)C(=O)N[C@H](C(=O)N[C@@H](CC(C)C)C(=O)N[C@@H](CC(C)C)C(=O)N[C@@H](CC(C)C)C(=O)N[C@@H](CC(=O)O)C(=O)N[C@@H](CC(C)C)C(=O)N[C@@H](CC(C)C)C(=O)N[C@@H](Cc1c[nH]c2ccccc12)C(=O)N[C@@H](CC(=O)O)C(=O)N[C@@H](C)C(=O)N[C@@H](CC(=O)O)C(=O)N[C@@H](CCC(=O)O)C(=O)N[C@@H](CSS[C@H](C)COC(=O)NCN1c2cc(F)cc3c(=O)[nH]nc(c23)[C@H](c2ncnn2C)[C@H]1c1ccc(F)cc1)C(=O)NCC(=O)O)[C@@H](C)O)[C@@H](C)O [Example 41]		1.9 nM	43 nM
		CC(C)C[C@H](NC(=O)[C@H](Cc1ccc(O)cc1)NC(=O)[C@H](C)NC(=O)[C@H](CCCNC(=N)N)NC(=O)[C@H](Cc1c[nH]c2ccccc12)NC(=O)[C@@H]1CCCN1C(=O)[C@H](CC(N)=O)NC(=O)[C@H](CCC(N)=O)NC(=O)[C@H](CC(=O)O)NC(=O)[C@H](CC(=O)O)NC(=O)[C@H](C)N)C(=O)N[C@@H](CC(=O)O)C(=O)N[C@@H](CC(C)C)C(=O)N[C@@H](CC(C)C)C(=O)N[C@@H](Cc1ccccc1)C(=O)N1CCC[C@H]1C(=O)N[C@H](C(=O)N[C@@H](CC(=O)O)C(=O)N[C@H](C(=O)N[C@@H](CC(C)C)C(=O)N[C@@H](CC(C)C)C(=O)N[C@@H](CC(C)C)C(=O)N[C@@H](CC(=O)O)C(=O)N[C@@H](CC(C)C)C(=O)N[C@@H](CC(C)C)C(=O)N[C@@H](Cc1c[nH]c2ccccc12)C(=O)N[C@@H](CSS[C@@H](C)COC(=O)NCN1c2cc(F)cc3c(=O)[nH]nc(c23)[C@H](c2ncnn2C)[C@H]1c1ccc(F)cc1)C(=O)NCC(=O)O)[C@@H](C)O)[C@@H](C)O [Example 42]		1.4 nM	53 nM
96.8 nM	6.4 nM	NC(=O)c1cccc2[nH]c(-c3ccc(CO)cc3)nc12 [R^8H-1, 2-[4-(hydroxymethyl)phenyl]-1H-benzimidazole-4-carboxamide, reference compound]			

Reference: patent US12427157B2, “Methods for treatment of diseases involving acidic or hypoxic diseased tissues” (Cybrexa 1, Inc., priority 2018, dated 2025)
